In article PMC9575645 (Signal Transduction and Targeted Therapy, 2022):

Tests used:
[1] = system: Porcine epidemic diarrhea coronavirus (QIAP1401); assay: In vitro antiviral activity against PEDV in Vero E6 cells (CCIF viral yield); assay type: cell-based; conditions: for IC50: Vero E6 cells
Experimental: Cells were grown in 6- or 12-well plates or 8-well chamber slides to the desired confluency and then washed twice with phosphate-buffered saline (PBS, pH 7.4). They were then mock-inoculated with medium only or virus-inoculated with various multiplicities of infection (MOI): MOI of 0.01 or 1 FFU/cell for IAV, and MOI of 0.01 or 0.1 FFU/cell for SARS-CoV-2, BCoV, PEDV, PRRSV, and PSaV. Thereafter, each inoculum was absorbed for 1 h, and the cells were washed twice with PBS (pH 7.4). As shown in Supplementary Table 4, further treatments and incubations varied dependent on the virus species used. Cells treated with PKA inhibitor H89 (5 μM or 50 μM concentration) or vehicle-treated immediately after absorption of IAV at an MOI of 1 FFU or SARS-CoV-2 at an MOI of 0.1 FFU were incubated for 24 and 36 h, respectively, and each cell lysate was used for the detection of HSL and pHSL by western blot analysis as described below. Cells treated with lipase inhibitors at the median incubation time of IAV or SARS-CoV-2 as described in the above condition were supplemented with LA, OA, or PA at 100 µM concentration and left incubation for further median incubation time. The cells were used to assess levels of intracellular TAGs, cholesterol, FFAs, glycerol, FAO, proinflammatory cytokines as well as viral genome copy numbers and virus titers as described below and in Supplementary Information.
To determine the antiviral effects of chemicals, serial 10-fold dilutions of each cell culture supernatant after three cycles of freezing and thawing cycles were prepared in appropriate medium supplemented with 100 U/mL penicillin and 100 μg/mL streptomycin as described above. To determine the viral infectivity titer in lung tissues from the hamsters challenged with or without SARS-CoV-2, or administered with or without inhibitors as described above, aseptically sampled lungs from five hamsters per group at day five post-virus infection were harvested. Cleared supernatants from lung tissue as produced from IAV-infected mice above were serially tenfold-diluted with virus growth medium. […] The cells were washed twice with PBS (pH 8.0), mounted with 60% glycerol, and observed byr inverted fluorescence microscopy. The number of cells showing a viral antigen-positive signal at the endpoint dilution were counted. IC50 was calculated using GraphPad Prism software version 8.4.2. […] CC50 data from the MTT assay and IC50 from the IF assay were both calculated using GraphPad Prism software version 8.4.2.

MA104 = assay: Cytotoxicity, MTT assay, MA104; assay type: cell-based, African green monkey
Experimental: The cytotoxic effects of the chemicals and their solvents were tested by the MTT assay,[44] and its procedure is described in Supplementary Information.
The cytotoxic effects of the chemicals and their solvents used were tested by the MTT assay as described previously.^10 In brief, the chemicals were dissolved in DMSO to a stock concentration of 10 mM, and then freshly serially diluted in serum-free medium before being added to cell culture monolayers. The absorbance was measured using an enzyme-linked immunosorbent assay (ELISA) reader at an optical density (OD) of 570 nm. The percent cell viability was calculated using the following formula, [(ODsample˗ODblank)/(ODcontrol˗ODblank)] × 100%. According to the cell cytotoxicity data, dose-response curves were generated for the calculation of CC50 using GraphPad Prism software version 8.4.2.

[2] = system: LD lipolysis (FFA and glycerol release); assay: Intracellular FFA and glycerol quantification in IAV-infected A549 cells; assay type: cell-based, human; conditions: 20 µM at 12 hpi, vs vehicle-treated control
Experimental: Cells were grown in 6- or 12-well plates or 8-well chamber slides to the desired confluency and then washed twice with phosphate-buffered saline (PBS, pH 7.4). They were then mock-inoculated with medium only or virus-inoculated with various multiplicities of infection (MOI): MOI of 0.01 or 1 FFU/cell for IAV, and MOI of 0.01 or 0.1 FFU/cell for SARS-CoV-2, BCoV, PEDV, PRRSV, and PSaV. Thereafter, each inoculum was absorbed for 1 h, and the cells were washed twice with PBS (pH 7.4). As shown in Supplementary Table 4, further treatments and incubations varied dependent on the virus species used. […]
To determine intracellular levels of free fatty acids, the different cultured cells infected with or without the seven target RNA viruses, or treated with or without different concentrations of chemicals, and the lung samples from experimental mice and hamsters were prepared as described above. The amount of intracellular free fatty acid was determined using a quantification kit from BioVision according to the manufacturer’s recommendations.^31 Briefly, 5x10^6 cells or 100 mg of lung tissue were mixed with 500 μL of chloroform-Triton X-100 (1% Triton X-100 in pure chloroform) with vortexing at five-minute intervals for 20 min at 20°C. […]

seven target RNA viruses = assay: Broad-spectrum antiviral effect at 1-20 µM at different treatment times (RT-qPCR, CCIF); assay type: cell-based; conditions: all target RNA viruses, treated just prior to the peak of lipase activity vs immediately after virus absorption
[3] = system: Porcine respiratory reproductive syndrome virus (LMY); conditions: for IC50: PRRSV (LMY), MARC-145 cells
[4] = In vivo toxicity in hamsters (body weight, gross and histopathological organ changes)
Experimental: Three groups of 3 hamsters were treated intraperitoneally with 20, 40, and 80 mg kg^-1 d^-1 of atglistatin prepared in a 100 μL vehicle [50% PEG400 in water (vol/vol)] Bid with a 12 h interval for four and a half consecutive days, respectively (Table S10). One group of 3 control anesthetized hamsters was administered intraperitoneally with 100 μL vehicle Bid with a 12 h interval for four and a half consecutive days (Table S10).
Histopathological changes in lungs, liver, kidney, heart, and spleen from the experimental mice or hamsters in each experimental group were determined as described elsewhere.^35 Briefly, each sample from the mice or hamsters in each experimental group was fixed in sufficient 10% neutral formalin at 20°C for 3-4 days, washed in tap water, then trimmed, and thereafter processed in the automatic embedding machine for the dehydration and paraffin embedment. Tissue sections, prepared on slides at a thickness of 3 μm by a microtome, were used for hematoxylin and eosin (H&E) staining or IHC as described below. H&E stained sections were observed under light microscopy. The morphological changes to lung, liver, kidney, heart, and spleen tissues were reviewed in a blinded manner as previous described.^35

Row | Compound | SI (CC50/IC50) [1] | IC50 [1] [µM] | CC50 (MA104) [µM] | levels of intracellular FFAs and glycerol [2] | viral genome replication and infectious progeny production (seven target RNA viruses) | SI (CC50/IC50) [3] | IC50 [3] [µM] | toxicity, including body weight loss ([4]; 80 mg kg^-1 d^-1 atglistatin and 2.5 mg kg^-1 d^-1 remdesivir, singly or in combination) | gross and histopathological changes in major organs (liver, lung, kidney, heart, spleen) ([4]; 20, 40, or 80 mg kg^-1 d^-1 Bid for 4.5 consecutive days) | overt signs of toxicity, including loss of body weight ([4]; intraperitoneal 80 mg kg^-1 d^-1)
1 | CN(C)C(=O)Nc1cccc(-c2ccc(N(C)C)cc2)c1 [Atglistatin] | 116 | 1.96 ± 0.14 | 214.5 ± 2 | significantly reduced | greater reduction in viral genome replication and infectious progeny production of all target RNA viruses in a dose-dependent manner | 84 | 2.53 ± 0.18 | no toxicity | no gross and histopathological changes | did not induce any overt signs of toxicity
2 | COc1nn(-c2ccc(NC(=O)OCc3ccccc3)c(C)c2)c(=O)o1 [CAY10499] | 30 | 3.19 ± 0.42 | 107 ± 5.6 | significantly reduced | greater reduction in viral genome replication and infectious progeny production of all target RNA viruses in a dose-dependent manner | 24 | 4.21 ± 0.55 | – | – | –
